Holding throughout (type): biochemical
The target in experiment [1] is T1, soluble chondroitin synthase fused with a cleavable insulin signal sequence and a protein A (Homo sapiens, UniProt Q86X52, R588T).
T1 construct: ID; NO: 2; made in house; host or cells: COS-1 cells (transient transfection; secreted fusion protein captured from the medium on IgG-Sepharose beads)
T1 sequence (Q86X52 47-802 R588T): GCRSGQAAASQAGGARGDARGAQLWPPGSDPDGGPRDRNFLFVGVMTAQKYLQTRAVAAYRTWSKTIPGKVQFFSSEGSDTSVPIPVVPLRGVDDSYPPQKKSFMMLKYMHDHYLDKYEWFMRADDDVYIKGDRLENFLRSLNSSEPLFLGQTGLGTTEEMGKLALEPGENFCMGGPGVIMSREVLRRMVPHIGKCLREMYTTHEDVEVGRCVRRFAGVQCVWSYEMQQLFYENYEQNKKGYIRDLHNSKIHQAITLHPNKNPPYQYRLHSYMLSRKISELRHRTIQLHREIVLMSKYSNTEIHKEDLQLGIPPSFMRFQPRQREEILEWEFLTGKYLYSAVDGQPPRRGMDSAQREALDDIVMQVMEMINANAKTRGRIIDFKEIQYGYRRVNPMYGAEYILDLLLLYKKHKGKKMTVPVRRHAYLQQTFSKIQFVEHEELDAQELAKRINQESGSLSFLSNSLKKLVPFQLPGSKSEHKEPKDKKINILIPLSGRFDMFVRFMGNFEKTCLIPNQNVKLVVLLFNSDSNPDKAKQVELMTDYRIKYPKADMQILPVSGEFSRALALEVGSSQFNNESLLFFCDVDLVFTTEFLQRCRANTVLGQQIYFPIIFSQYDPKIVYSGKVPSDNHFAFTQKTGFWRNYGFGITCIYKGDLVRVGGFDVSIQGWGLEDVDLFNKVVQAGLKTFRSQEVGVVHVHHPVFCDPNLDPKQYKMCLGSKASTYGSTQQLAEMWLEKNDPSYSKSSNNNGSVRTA
Put plainly: GlcUA transferase I (GlcAT-I) assay, UDP-[14C]GlcUA as donor. The following applies: enzyme-bound beads, MES pH 6.5, 2 mM MnCl2, 37° C., one hour, average of two experiments. The procedure: (§1) By using FuGENE (Trademark) 6 (Roche Molecular Biochemicals Co., Tokyo), an expression plasmid (6.7 μg) was transfected into a COS-1 cell on a 100 mm plate, in accordance with a manual of the manufacture. On the second day from the transfection, 1 ml of an incubation liquid was collected and incubated together with 10 μL of IgG-Sepharose (Amersham Pharmacia Biotech) at 4° C. for one hour. Beads of the IgG-Sepharose was collected by centrifugation, and then washed with an assay buffer. After that, the beads were resuspended in an assay buffer of the same kind as the assay buffer. The beads were used for assaying GalNAc transferase, GlcUA transferase, and Gal transferase. That is, a fused protein occurred in the incubation liquid was absorbed by IgG-Sepharose so as to remove glycosyltransferases in the incubation liquid. […]
(§2) Assay of GlcUA transferase I (GlcAT-I), which is necessary for synthesis of tetrasaccharide for the linkage region, was carried out with a mixture of, in 30 μL in total, 10 μL of the resuspended beads, 1 nmol Galβ1-3Galβ1-4Xyl, 14.3 μM UDP-[^14C]GlcUA (1.46×10^5 dpm), 50 mM MES buffer, pH6.5, and 2 mM MnCl2 (FEBS lett. 459, 415-420 (1999)). […] The thus collected labeled products were quantified by liquid scintillation spectroscopy.

In experiment [2] the target is T1, soluble chondroitin synthase fused with a cleavable insulin signal sequence and a protein A. The experiment can be described thus: GalNAc transferase assay, UDP-[3H]GalNAc as donor. The following applies: for ACTIVITY (receptor specificity): enzyme-bound beads, MES pH 6.5, 10 mM MnCl2, 37° C., one hour, average of two experiments. The procedure: By using FuGENE (Trademark) 6 (Roche Molecular Biochemicals Co., Tokyo), an expression plasmid (6.7 μg) was transfected into a COS-1 cell on a 100 mm plate, in accordance with a manual of the manufacture. On the second day from the transfection, 1 ml of an incubation liquid was collected and incubated together with 10 μL of IgG-Sepharose (Amersham Pharmacia Biotech) at 4° C. for one hour. Beads of the IgG-Sepharose was collected by centrifugation, and then washed with an assay buffer. After that, the beads were resuspended in an assay buffer of the same kind as the assay buffer. The beads were used for assaying GalNAc transferase, GlcUA transferase, and Gal transferase. That is, a fused protein occurred in the incubation liquid was absorbed by IgG-Sepharose so as to remove glycosyltransferases in the incubation liquid. Then, by using the enzyme bound beads as an enzyme source, glycosyltransferase activity of the fused protein that was bound to the beads was assayed with various receptor substrates and donor substrates.
As a receptor for GalNAc transferase, a polymer (167 μg) of chondroitin, α-thrombomodulin (1 nmol), or GlcUAβ1-3Galβ1-3Galβ1-4Xylβ1-0-Ser (1 nmol) was used. Moreover, as a receptor for GlcUA transferase, the polymer (167 μg) of chondroitin or Galβ1-3Galβ1-4Xylβ (1 nmol) was used. As a receptor of Gal transferase, sheep submandibular asialomucin (300 μg) or GlcNAcβ1-3Galβ1-4GlcNAcβ1-3Galβ1-4GlcNAc (1 nmol) was used. […]
as §2

The target is the same in experiment [3]. Put plainly: GlcUA transferase II (GlcAT-II) assay, chondroitin polymer as receptor, UDP-[14C]GlcUA as donor. The procedure: as §1, §2
The target is the same in experiment [4]. The experiment can be described thus: Gal transferase assay, UDP-[3H]Gal as donor. The following applies: enzyme-bound beads, MES pH 6.5, 10 mM MnCl2, 37° C., one hour, average of two experiments. The procedure:
as §1, §2

`OC[C@H]1O[C@@H](O[C@H]2[C@@H](O)[C@@H](CO)O[C@@H](O[C@@H]3COC(O)[C@H](O)[C@H]3O)[C@@H]2O)[C@H](O)[C@@H](O)[C@H]1O` (stereo partly shown) [Galβ1-3Galβ1-4Xyl]: the “ACTIVITY (receptor specificity)” value in experiment [1] is “ND (ND: Not Detected (<0.1 pmol/ml medium/time))”. For `N[C@@H](CO[C@@H]1OC[C@@H](O[C@@H]2O[C@H](CO)[C@H](O)[C@H](O[C@@H]3O[C@H](CO)[C@H](O)[C@H](O[C@@H]4O[C@H](C(=O)O)[C@@H](O)[C@H](O)[C@H]4O)[C@H]3O)[C@H]2O)[C@H](O)[C@H]1O)C(=O)O` [GlcUAβ1-3Galβ1-3Galβ1-4Xylβ-O-Ser, GlcUAβ1-3Galβ1-3Galβ1-4Xylβ1-O-Ser], the “ACTIVITY (receptor specificity)” value in experiment [2] is recorded as “ND (ND: Not Detected (<0.1 pmol/ml medium/time))”. Consider Chondroitin, for which the “glycosyltransferase activity detected or not (in words)” value in experiment [3] and in experiment [2] was “Activities were detected” in each case. Also, the “ACTIVITY (receptor specificity)” value in experiment [3] (enzyme-bound IgG-Sepharose beads, pH 5.6, 10 mM MnCl2, 37° C., one hour, average of two experiments) is 5.2 pmol/ml medium/time; in experiment [2], 1.4 pmol/ml medium/time.

For the compound “GlcNAcβ1-3Galβ1-4GlcNAcβ1-3Galβ1-4GlcNAc”, the “ACTIVITY (receptor specificity)” value in experiment [4] is listed as “ND (ND: Not Detected (<0.1 pmol/ml medium/time))”.
